# Assay results from US11938136B2, “Compositions for treating spinal muscular atrophy” (Hoffmann-La Roche Inc., priority 2015, dated 2024).
# Test system: SMN protein
# Test: SMN protein in spinal motor neurons derived from SMA patient iPSCs (immunostaining)
# Assay type: cell-based, human
# Method: (A) SMN2 splicing in SMA Type 1 fibroblasts. (B) SMN protein in SMA Type 1 fibroblasts. (C) SMN protein in SMA Type 1 motor neurons. (D) SMN1 and SMN2 splicing in whole blood derived from HV. Fibroblasts from SMA Type 1 patients were cultured for 24 hours (A) or 48 hours (B); motor neurons from SMA Type 1 patient iPSCs (induced Pluripotent Stem Cells) were cultured for 72 hours (C) and whole blood cells from healthy volunteers (HV) for 4 hours (D) in the presence of the compound of Example 20. SMN splicing was assessed by RT-PCR, and SMN protein levels were assessed by homogenous time-resolved fluorescence (HTRF) in fibroblast lysates, and by immunostaining for SMN in motor neurons. Data represent means standard error (SEM) of 3 evaluations per data point and are expressed as fold change vs. untreated controls.
smiles,measurement,setting,value
"Cc1cn2nc(-c3cc(=O)n4cc(N5CCNC6(CC6)C5)ccc4n3)cc(C)c2n1 [Example 20, 7-(4,7-diazaspiro[2.5]octan-7-yl)-2-(2,8-dimethylimidazo[1,2-b]pyridazin-6-yl)pyrido[1,2-a]pyrimidin-4-one]",maximal increase in SMN protein above untreated cells,motor neurons from SMA patient iPSCs,60-80%
same,EC50,"spinal motor neurons from SMA patient iPSCs, 72 hours",182 ± 114 nM
